Reference: US12428406B2 (PMV Pharmaceuticals, Inc., priority 2019, dated 2025)

The compounds below were run against T1, p53 Y220C (Homo sapiens, UniProt P04637, Y220C) (assay: In vitro DNA binding activity assay (HTRF / TR-FRET): stabilization of p53 Y220C and increase of its DNA binding activity). Details: recombinant His-tagged p53 Y220C DNA binding domain (aa 94-312), biotin-labeled consensus DNA, incubated at 27° C. or 29° C. for 60 min.
T1 construct: The recombinant protein was a truncation mutant containing only amino acids 94-312 of p53; made in house; host or cells: E. coli
T1 sequence (P04637 94-312, change not shown): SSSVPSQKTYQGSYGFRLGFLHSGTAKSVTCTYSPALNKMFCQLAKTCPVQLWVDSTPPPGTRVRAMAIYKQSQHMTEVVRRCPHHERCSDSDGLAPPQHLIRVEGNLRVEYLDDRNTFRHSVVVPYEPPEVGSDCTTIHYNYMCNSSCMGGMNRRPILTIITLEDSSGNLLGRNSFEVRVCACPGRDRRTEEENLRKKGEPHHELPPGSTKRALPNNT
Assay type: biochemical
In short: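 Homogeneous time-resolved fluorescence with E. coli-derived p53 Y220C and biotinylated consensus DNA. Room-temperature incubations of 15 and 20 min precede reading. SC150 denotes the compound concentration required for 50% increased DNA binding.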
In the case of `COCCOc1cc(S(C)(=O)=O)ccc1NCC#Cc1cc2c(NC3CCN(CC(O)COC)CC3)cccc2n1CC(F)(F)F` (stereo not drawn) [Compound 637A, 1-(4-{[2-(3-{[4-methanesulfonyl-2-(2-methoxyethoxy)phenyl]amino}prop-1-yn-1-yl)-1-(2,2,2-trifluoroethyl)-1H-indol-4-yl]amino}piperidin-1-yl)-3-methoxypropan-2-ol], the “SC150 (concentration of the compound required to increase the DNA binding activity by 50%)” value is reported as “+ (+ = 0 μM ≤ SC150 < 0.05 μM)”.
`COC[C@H](CN1CCC(Nc2cccc3c2cc(C#CCNc2ccc(S(C)(=O)=O)cc2OC)n3CC(F)(F)F)CC1)OC(=O)C(C)C` [Compound 638A, (2S)-1-{4-[(2-{3-[(4-methanesulfonyl-2-methoxyphenyl)amino]prop-1-yn-1-yl}-1-(2,2,2-trifluoroethyl)-1H-indol-4-yl)amino]piperidin-1-yl}-3-methoxypropan-2-yl 2-methylpropanoate] was tested, and the “SC150 (concentration of the compound required to increase the DNA binding activity by 50%)” value was “+ (+ = 0 μM ≤ SC150 < 0.05 μM)”.
In the case of `COCC(O)CN1CCC(Nc2cccc3c2cc(C#CCNc2ccc(S(C)(=O)=O)cc2OCC#N)n3CC(F)(F)F)CC1` (stereo not drawn) [Compound 642A, 2-(2-{[3-(4-{[1-(2-hydroxy-3-methoxypropyl)piperidin-4-yl]amino}-1-(2,2,2-trifluoroethyl)-1H-indol-2-yl)prop-2-yn-1-yl]amino}-5-methanesulfonylphenoxy) acetonitrile], the “SC150 (concentration of the compound required to increase the DNA binding activity by 50%)” value is reported as “+ (+ = 0 μM ≤ SC150 < 0.05 μM)”.
`COCC(O)CN1CCC(Nc2c(OC)ccc3c2cc(C#CCNc2ccc(S(C)(=O)=O)cc2OC)n3CC(F)(F)F)CC1` (stereo not drawn) [Compound 643A, 1-{4-[(2-{3-[(4-methanesulfonyl-2-methoxyphenyl)amino]prop-1-yn-1-yl}-5-methoxy-1-(2,2,2-trifluoroethyl)-1H-indol-4-yl)amino]piperidin-1-yl}-3-methoxypropan-2-ol] was tested, and the “SC150 (concentration of the compound required to increase the DNA binding activity by 50%)” value was “+++ (+++ = 0.1 μM ≤ SC150 < 0.2 μM)”.
With `COCC(O)CN1CCC(Nc2cccc3c2cc(C#CCNc2ccc(S(C)(=O)=O)cc2OCCO)n3CC(F)(F)F)CC1` (stereo not drawn) [Compound 644A, 1-(4-{[2-(3-{[2-(2-hydroxyethoxy)-4-methanesulfonylphenyl]amino}prop-1-yn-1-yl)-1-(2,2,2-trifluoroethyl)-1H-indol-4-yl]amino}piperidin-1-yl)-3-methoxypropan-2-ol] the “SC150 (concentration of the compound required to increase the DNA binding activity by 50%)” value was “+ (+ = 0 μM ≤ SC150 < 0.05 μM)”.
With `COCC(O)CN1CCC(Nc2cccc3c2cc(C#CCNc2ccc(S(C)(=O)=O)cc2OCC(F)(F)F)n3CC(F)(F)F)CC1` (stereo not drawn) [Compound 645A, 1-(4-{[2-(3-{[4-methanesulfonyl-2-(2,2,2-trifluoroethoxy)phenyl]amino}prop-1-yn-1-yl)-1-(2,2,2-trifluoroethyl)-1H-indol-4-yl]amino}piperidin-1-yl)-3-methoxypropan-2-ol] the “SC150 (concentration of the compound required to increase the DNA binding activity by 50%)” value was “+ (+ = 0 μM ≤ SC150 < 0.05 μM)”.
In the case of `COCC(O)CN1CCC(Nc2cccc3c2cc(C#CCOc2ccc(S(C)(=O)=O)cc2N)n3CC(F)(F)F)CC1` (stereo not drawn) [Compound 646A, 1-[4-((2-[3-(2-amino-4-methanesulfonylphenoxy)prop-1-yn-1-yl]-1-(2,2,2-trifluoroethyl)-1H-indol-4-yl}amino)piperidin-1-yl]-3-methoxypropan-2-ol], the “SC150 (concentration of the compound required to increase the DNA binding activity by 50%)” value is reported as “+ (+ = 0 μM ≤ SC150 < 0.05 μM)”.
For `CNC(=O)c1ccc(NCC#Cc2cc3c(NC4CCN(C[C@@H](O)COC)CC4)cccc3n2CC(F)(F)F)c(OC)c1` [Compound 647A, 4-({3-[4-({1-[(2R)-2-hydroxy-3-methoxypropyl]piperidin-4-yl}amino)-1-(2,2,2-trifluoroethyl)-1H-indol-2-yl]prop-2-yn-1-yl}amino)-3-methoxy-N-methylbenzamide], the “SC150 (concentration of the compound required to increase the DNA binding activity by 50%)” value was “+ (+ = 0 μM ≤ SC150 < 0.05 μM)”.
`CNC(=O)c1ccc(NCC#Cc2cc3c(NC4CCN(C[C@H](O)COC)CC4)cccc3n2CC(F)(F)F)c(OC)c1` [Compound 648A, 4-({3-[4-({1-[(2S)-2-hydroxy-3-methoxypropyl]piperidin-4-yl}amino)-1-(2,2,2-trifluoroethyl)-1H-indol-2-yl]prop-2-yn-1-yl}amino)-3-methoxy-N-methylbenzamide] was tested, and the “SC150 (concentration of the compound required to increase the DNA binding activity by 50%)” value was “+ (+ = 0 μM ≤ SC150 < 0.05 μM)”.
For `CNC(=O)c1ccc(NCC#Cc2cc3c(NC4CCN(C[C@H](CO)OC)CC4)cccc3n2CC(F)(F)F)c(OC)c1` [Compound 649A, 4-({3-[4-({1-[(2R)-3-hydroxy-2-methoxypropyl]piperidin-4-yl}amino)-1-(2,2,2-trifluoroethyl)-1H-indol-2-yl]prop-2-yn-1-yl}amino)-3-methoxy-N-methylbenzamide], the “SC150 (concentration of the compound required to increase the DNA binding activity by 50%)” value was “+ (+ = 0 μM ≤ SC150 < 0.05 μM)”.
In the case of `CNC(=O)c1ccc(NCC#Cc2cc3c(NC4CCN(C[C@@H](CO)OC)CC4)cccc3n2CC(F)(F)F)c(OC)c1` [Compound 650A, 4-({3-[4-({1-[(2S)-3-hydroxy-2-methoxypropyl]piperidin-4-yl}amino)-1-(2,2,2-trifluoroethyl)-1H-indol-2-yl]prop-2-yn-1-yl}amino)-3-methoxy-N-methylbenzamide], the “SC150 (concentration of the compound required to increase the DNA binding activity by 50%)” value is reported as “+ (+ = 0 μM ≤ SC150 < 0.05 μM)”.
For `CNc1cc(S(C)(=O)=O)ccc1OCC#Cc1cc2c(NC3CCN(CC(O)COC)CC3)cccc2n1CC(F)(F)F` (stereo not drawn) [Compound 651A, l-{4-[(2-{3-[4-methanesulfonyl-2-(methylamino)phenoxy]prop-1-yn-1-yl}-1-(2,2,2-trifluoroethyl)-1H-indol-4-yl)amino]piperidin-1-yl}-3-methoxypropan-2-ol], the “SC150 (concentration of the compound required to increase the DNA binding activity by 50%)” value was “+ (+ = 0 μM ≤ SC150 < 0.05 μM)”.
With `CNC(=O)c1ccc(NCC#Cc2cc3c(NC4CCN(CC(O)COC)CC4)cccc3n2CC(F)(F)F)c(OCCF)c1` (stereo not drawn) [Compound 652A, 3-(2-fluoroethoxy)-4-{[3-(4-{[1-(2-hydroxy-3-methoxypropyl)piperidin-4-yl]amino}-1-(2,2,2-trifluoroethyl)-1H-indol-2-yl)prop-2-yn-1-yl]amino}-N-methylbenzamide] the “SC150 (concentration of the compound required to increase the DNA binding activity by 50%)” value was “+ (+ = 0 μM ≤ SC150 < 0.05 μM)”.
For `CNC(=O)c1ccc(NCC#Cc2cc3c(NC4CCN(CC(O)COC)CC4)cccc3n2CC(F)(F)F)c(OCCOC)c1` (stereo not drawn) [Compound 653A, 4-{[3-(4-{[1-(2-hydroxy-3-methoxypropyl)piperidin-4-yl]amino}-1-(2,2,2-trifluoroethyl)-1H-indol-2-yl)prop-2-yn-1-yl]amino}-3-(2-methoxyethoxy)-N-methylbenzamide], the “SC150 (concentration of the compound required to increase the DNA binding activity by 50%)” value was “+ (+ = 0 μM ≤ SC150 < 0.05 μM)”.
`CNC(=O)c1ccc(NCC#Cc2cc3c(NC4CCN(CC(O)COC)CC4)cccc3n2CC(F)(F)F)c(OCC#N)c1` (stereo not drawn) [Compound 654A, 3-(cyanomethoxy)-4-{[3-(4-{[1-(2-hydroxy-3-methoxypropyl)piperidin-4-yl]amino}-1-(2,2,2-trifluoroethyl)-1H-indol-2-yl)prop-2-yn-1-yl]amino}-N-methylbenzamide] was tested, and the “SC150 (concentration of the compound required to increase the DNA binding activity by 50%)” value was “+ (+ = 0 μM ≤ SC150 < 0.05 μM)”.
In the case of `CCNC(=O)c1ccc(NCC#Cc2cc3c(NC4CCN(CC(O)COC)CC4)cccc3n2CC(F)(F)F)c(OC)c1` (stereo not drawn) [Compound 655A, N-ethyl-4-{[3-(4-{[1-(2-hydroxy-3-methoxypropyl)piperidin-4-yl]amino}-1-(2,2,2-trifluoroethyl)-1H-indol-2-yl)prop-2-yn-1-yl]amino}-3-methoxybenzamide], the “SC150 (concentration of the compound required to increase the DNA binding activity by 50%)” value is reported as “+ (+ = 0 μM ≤ SC150 < 0.05 μM)”.
`CCC(=O)OCC(CN1CCC(Nc2cccc3c2cc(C#CCNc2ccc(C(=O)NC)cc2OC)n3CC(F)(F)F)CC1)OC(=O)CC` (stereo not drawn) [Compound 656A, 1-(4-{[2-(3-{[2-methoxy-4-(methylcarbamoyl)phenyl]amino}prop-1-yn-1-yl)-1-(2,2,2-trifluoroethyl)-1H-indol-4-yl]amino}piperidin-1-yl)-3-(propanoyloxy)propan-2-yl propanoate] was tested, and the “SC150 (concentration of the compound required to increase the DNA binding activity by 50%)” value was “+ (+ = 0 μM ≤ SC150 < 0.05 μM)”.
With `CCC(=O)OC(COC)CN1CCC(Nc2cccc3c2cc(C#CCNc2ccc(C(=O)NC)cc2OC)n3CC(F)(F)F)CC1` (stereo not drawn) [Compound 657A, 1-methoxy-3-(4-{[2-(3-{[2-methoxy-4-(methylcarbamoyl)phenyl]amino}prop-1-yn-1-yl)-1-(2,2,2-trifluoroethyl)-1lH-indol-4-yl]amino}piperidin-1-yl)propan-2-yl propanoate] the “SC150 (concentration of the compound required to increase the DNA binding activity by 50%)” value was “+ (+ = 0 μM ≤ SC150 < 0.05 μM)”.
`CNC(=O)c1ccc(NCC#Cc2cc3c(NC4CCN(CC(O)CO)CC4)cccc3n2CC(F)(F)F)c(OC)c1` (stereo not drawn) [Compound 658A, 4-{[3-(4-{[1-(2,3-dihydroxypropyl)piperidin-4-yl]amino}-1-(2,2,2-trifluoroethyl)-1H-indol-2-yl)prop-2-yn-1-yl]amino}-3-methoxy-N-methylbenzamide] was tested, and the “SC150 (concentration of the compound required to increase the DNA binding activity by 50%)” value was “+ (+ = 0 μM ≤ SC150 < 0.05 μM)”.
With `CNC(=O)c1ccc(NCC#Cc2cc3c(NC4CCN(CC(O)COC)CC4)cccc3n2CC(F)(F)F)c(OCCC#N)c1` (stereo not drawn) [Compound 659A, 3-(2-cyanoethoxy)-4-{[3-(4-{[1-(2-hydroxy-3-methoxypropyl)piperidin-4-yl]amino}-1-(2,2,2-trifluoroethyl)-1H-indol-2-yl)prop-2-yn-1-yl]amino}-N-methylbenzamide] the “SC150 (concentration of the compound required to increase the DNA binding activity by 50%)” value was “+ (+ = 0 μM ≤ SC150 < 0.05 μM)”.
In the case of `CCOCC(O)CN1CCC(Nc2cccc3c2cc(C#CCNc2ccc(S(C)(=O)=O)cc2OC)n3CC(F)(F)F)CC1` (stereo not drawn) [Compound 660A, 1-ethoxy-3-{4-[(2-{3-[(4-methanesulfonyl-2-methoxyphenyl)amino]prop-1-yn-1-yl}-1-(2,2,2-trifluoroethyl)-1H-indol-4-yl)amino]piperidin-1-yl}propan-2-ol], the “SC150 (concentration of the compound required to increase the DNA binding activity by 50%)” value is reported as “+ (+ = 0 μM ≤ SC150 < 0.05 μM)”.
